Results from PMC9894685, “Abscisic acid agonists suitable for optimizing plant water use” (Frontiers in Plant Science, 2023).

Tested on: Arabidopsis plants
Assay: Foliar administration and thermal imaging of leaf temperature (transpiration), Arabidopsis
Assay type: in vivo, Arabidopsis thaliana

## CCC(=C/C(=O)O)/C=C/C(O)(C(C)C)C1(C#N)CC1 (stereo not drawn) [CCP2]
Foliar application
  Efficiency in minimizing transpiration compared to ABA: by an order of magnitude more efficient than ABA
One day after application
  ABA concentration achieving a temperature increase similar to 10 µM of the CCP: about 100 µM
Single application 100 µM, recorded for 19 days
  Activity and persistence of minimized transpiration compared to ABA: more active and persistent than ABA
